Tested on: foot complaints (tired, achy, sore)
Assay: Foot bath study of foot pain (100 mm visual analogue scale) versus sucrose sham
Assay type: in vivo, human
Excerpt: Subjects: Normal healthy adults aged 40-75 with daily reported foot complaints (tired, achy, sore) that are not currently taking prescription or over the counter products for symptom relief. An attempt is made to recruit equal numbers of male and female participants. Sample Size: 40 subjects; 20 per group Treatment groups: Soothing foot bath topical fluid application apparatus (Glucosamine KCl), group A; Sham: Sucrose foot bath topical fluid application apparatus, group B. Methods: Recruitment—Questionnaire evaluating health status and foot complaints; including visual analogue scale evaluation of current pain state. Baseline—Questionnaire evaluating health status and foot complaints; including visual analogue scale evaluation of current pain state. Treatment—Subjects are randomly assigned to one of two treatment groups and asked to submerge their right foot in a plastic box that contains 3 liters of room temperature tap water and 2 liters of boiling water plus one packet (50 grams) of the labeled “treatment pack” and stirred until in solution. Label is removed from pack and placed on chart. Foot remains submerged and stopwatch set for 1 hour. At the end of 1 hour, subject foot is dried and subject is asked to mark on the line (100 mm) the current state of their foot pain upon standing. […]

For `N[C@H]1C(O)OC(CO)[C@@H](O)[C@@H]1O` (stereo partly drawn) [glucosamine, (3R,4R,5S)-3-Amino-6-(hydroxymethyl)oxane-2,4,5-triol], the “pain relief compared with sucrose sham, duration” value (72 hours after treatment, single 1 hour foot bath, 50 grams in 5 liters water, many subjects) was “greater pain relief” and the “pain relief compared with sucrose sham (group B)” value (healthy adults aged 40-75 with daily foot complaints, right foot submerged 1 hour in 5 liters water with 50 grams treatment pack, visual analogue scale) was “sufficiently better pain relief”.
